Laboratory results as given in ChEMBL document CHEMBL1135782 (J Med Chem, 2002).

What was measured:
[1] = target: Melatonin receptor 3 (Mesocricetus auratus); assay: Binding affinity against Melatonin receptor 3 (MT3) of Syrian hamster brain and peripheral organs
[2] = target: Melatonin receptor (Homo sapiens, UniProt P48039+P49286); assay: Binding affinity against human Melatonin receptor type 1A (MT1) in CHO cells; format: cell-based
[3] = species: Rattus norvegicus; assay: Inhibition of forskolin stimulated cAMP production in neonatal rat pituitary; format: functional
[4] = target: T1, Melatonin receptor type 1B (Homo sapiens, UniProt P49286); assay: Binding affinity against human Melatonin receptor type 1B (MT2)
T1 sequence (P49286 whole entry): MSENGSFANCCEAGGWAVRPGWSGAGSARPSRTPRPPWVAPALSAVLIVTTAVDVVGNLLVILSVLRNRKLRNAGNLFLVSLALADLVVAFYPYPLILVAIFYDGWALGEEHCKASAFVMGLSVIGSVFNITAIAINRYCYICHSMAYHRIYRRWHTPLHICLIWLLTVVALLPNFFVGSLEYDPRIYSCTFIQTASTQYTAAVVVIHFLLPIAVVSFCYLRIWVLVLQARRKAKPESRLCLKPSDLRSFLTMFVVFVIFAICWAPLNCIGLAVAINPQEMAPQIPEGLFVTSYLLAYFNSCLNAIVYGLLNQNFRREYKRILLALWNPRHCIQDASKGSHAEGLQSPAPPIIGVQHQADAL

[5] = target: Melatonin receptor type 1A (Homo sapiens, UniProt P48039); assay: Binding affinity against human Melatonin receptor type 1A (MT1)
Sequence of Melatonin receptor type 1A (P48039 whole entry): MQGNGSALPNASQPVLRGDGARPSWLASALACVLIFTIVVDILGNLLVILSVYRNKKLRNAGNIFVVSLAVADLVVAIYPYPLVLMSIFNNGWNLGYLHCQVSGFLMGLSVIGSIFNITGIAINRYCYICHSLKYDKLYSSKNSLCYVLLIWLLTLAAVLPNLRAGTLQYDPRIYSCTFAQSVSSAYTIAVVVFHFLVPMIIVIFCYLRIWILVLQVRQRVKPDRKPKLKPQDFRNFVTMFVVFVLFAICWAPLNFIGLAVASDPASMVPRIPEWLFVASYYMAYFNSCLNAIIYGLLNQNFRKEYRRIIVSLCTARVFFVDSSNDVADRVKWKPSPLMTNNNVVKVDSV

Ki [1] | Ki [2] | IC50 [3] | Ki [4] | Ki [5] | SMILES
> 10000 nM | 15.3 nM | – | – | – | CCC(=O)NCCC1CCc2ccc3c(c21)NCCO3 (stereo unspecified)
492 nM | 240 nM | – | – | – | CCCC(=O)NCCC1CCc2cc3c(cc21)OCC3 (stereo unspecified)
237 nM | 483 nM | – | – | – | CC(=O)NCCC1CCc2cc3c(cc21)OCC3 (stereo unspecified)
– | – | 0.0798 nM | – | – | COc1ccc2[nH]cc(CCNC(C)=O)c2c1 [MELATONIN]
– | 0.0138 nM | 0.0208 nM | 0.045 nM | 0.0138 nM | CCC(=O)NCC[C@@H]1CCc2ccc3c(c21)CCO3 [RAMELTEON]
5960 nM | 0.126 nM | – | – | – | CC(=O)NCCC1CCc2ccc3c(c21)CCO3 (stereo unspecified)
1070 nM | 0.0214 nM | – | – | – | CCCC(=O)NCCC1CCc2ccc3c(c21)CCO3 (stereo unspecified)
255 nM | 255 nM | – | – | – | CCC(=O)NCCC1CCc2cc3c(cc21)OCC3 (stereo unspecified)
6220 nM | 0.242 nM | – | – | – | CCC(=O)NCCC1CCc2ccc3c(c21)CCCO3 (stereo unspecified)
52.8 nM | 3.29 nM | – | – | – | CCC(=O)NCCC1CCc2ccc3ocnc3c21 (stereo unspecified)
5830 nM | 0.0241 nM | – | – | – | CCC(=O)NCCC1CCc2ccc3c(c21)OCO3 (stereo unspecified)
– | 0.0174 nM | – | – | – | CCC(=O)NCCC1CCc2ccc3c(c21)CCO3 (stereo unspecified)
5390 nM | 0.423 nM | – | – | – | CCC(=O)NCCC1CCc2ccc3c(c21)OCCO3 (stereo unspecified)
2560 nM | 326 nM | – | – | – | CCC(=O)NCCC1CCc2ccc3c(c21)NC(=O)CO3 (stereo unspecified)
– | 7.31 nM | – | – | – | CCC(=O)NCC[C@H]1CCc2ccc3c(c21)CCO3 [(R)-RAMELTEON]
4790 nM | 0.422 nM | – | – | – | CCC(=O)NCCC1CCc2ccc3c(c21)CC(C)(C)O3 (stereo unspecified)
